Assay results published in patent US10010547B2 (CASCADIAN THERAPEUTICS, INC., priority 2014, dated 2018).
pIC50: −log10 of the molar value. Counter-ions that a name gives are not always drawn. Like-named read-outs stand apart in the source and are kept apart here.

How the values were obtained:
Chk-1 kinase = Chk-1 kinase (Homo sapiens (Human), UniProt O14757); assay: Chk-1 Kinase Inhibiting Activity (33P-ATP filter assay, CHKtide substrate); type: biochemical; details: against Chk-1 kinase; read-out: IC50
Chain of Chk-1 kinase (O14757 whole entry): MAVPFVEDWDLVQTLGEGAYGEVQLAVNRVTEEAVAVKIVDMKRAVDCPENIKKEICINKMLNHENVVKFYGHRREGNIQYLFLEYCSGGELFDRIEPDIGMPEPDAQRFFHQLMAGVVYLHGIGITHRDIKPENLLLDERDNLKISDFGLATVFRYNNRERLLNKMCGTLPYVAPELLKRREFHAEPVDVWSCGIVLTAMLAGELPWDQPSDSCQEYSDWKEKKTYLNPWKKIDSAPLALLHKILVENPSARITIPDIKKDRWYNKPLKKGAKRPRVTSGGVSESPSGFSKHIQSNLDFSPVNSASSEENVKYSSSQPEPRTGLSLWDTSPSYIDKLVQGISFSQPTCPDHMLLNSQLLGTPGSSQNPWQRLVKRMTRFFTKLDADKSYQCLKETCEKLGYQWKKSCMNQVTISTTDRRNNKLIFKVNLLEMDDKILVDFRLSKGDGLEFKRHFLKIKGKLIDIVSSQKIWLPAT
Procedure, shortened: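 Full-length N-terminal GST-tagged human Chk-1 from insect cells, 0.5 nM final, with 20 μM peptide substrate and 33P-ATP in HEPES pH 7.5 buffer with 1% DMSO. Reaction ran 120 minutes at room temperature; incorporated radioactivity captured on P81 filters and counted for IC50.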

MIA PaCa-2 cells = assay: Gemcitabine Combination Cell Assay (Cell Titer Glo); type: cell-based; details: for pIC50: Chk1 inhibitor alone, read-out: Chk1 IC50; for pIC50 / 10xLS / 2xLS: MIA PaCa-2 cells, 72 h; for 10xLS: approximate concentration of Chk1 inhibitor that results in a 10-fold reduction in the IC50 of gemcitabine alone; for 2xLS: approximate concentration of Chk1 inhibitor that results in a two-fold reduction in the IC50 of gemcitabine alone; for IC50: MIA PaCa-2, 72 h, read-out: Chk1 IC50 (nM)
Procedure, shortened: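 MIA PaCa-2 cells were treated 72 h with half-log dilutions of Chk1 inhibitor (top 3000 nM) and gemcitabine (top 100 nM), alone and in full matrix; viability by CellTiter-Glo luminescence. IC50s from four-parameter fit; Chk1 inhibitor concentrations giving two- and ten-fold lowering of gemcitabine IC50 were estimated.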

Compound	pIC50 (Chk-1 kinase)	pIC50 (MIA PaCa-2 cells; Homo sapiens)	pIC50 (MIA PaCa-2 cells)	10xLS (MIA PaCa-2 cells)	2xLS (MIA PaCa-2 cells)	IC50 (MIA PaCa-2 cells; Homo sapiens)
COc1cc(COC2CCN(C(C)C)CC2)ccc1-c1cc(Nc2cnc(C#N)cn2)n[nH]1 [Example 115, 5-[[5-[4-[(1-isopropyl-4-piperidyl)oxymethyl]-2-methoxy-phenyl]-1H-pyrazol-3-yl]amino]pyrazine-2-carbonitrile]	9.62	–	6.29	<300 nM	3 nM	–
COc1cc(CN2CC[C@@H](F)C2)ccc1-c1cc(Nc2cnc(C#N)cn2)n[nH]1 [Example 123, 5-[[5-[4-[[(3R)-3-fluoropyrrolidin-1-yl]methyl]-2-methoxy-phenyl]-1H-pyrazol-3-yl]amino]pyrazine-2-carbonitrile hydrochloride]	9.80	–	–	<300 nM	3 nM	440 nM
COc1cc(OCC2CCCN2C)ccc1-c1cc(Nc2cnc(C#N)cn2)n[nH]1 (stereo not shown) [Example 35, 5-[[5-[2-methoxy-4-[(1-methylpyrrolidin-2-yl)methoxy]phenyl]-1H-pyrazol-3-yl]amino]pyrazine-2-carbonitrile]	9.85	6.66	–	100 nM	3 nM	–
COc1cc(O[C@H]2CCNC2)ccc1-c1cc(Nc2cnc(C#N)cn2)n[nH]1 [Example 33, 5-[[5-[2-methoxy-4-[(3S)-pyrrolidin-3-yl]oxy-phenyl]-1H-pyrazol-3-yl]amino]pyrazine-2-carbonitrile]	10.13	7.21	–	<30 nM	<3 nM	–
CN1CCC(c2ccc(-c3cc(Nc4cnc(C#N)cn4)n[nH]3)cc2)CC1 [Example 27, 5-[[5-[4-(1-methyl-4-piperidyl)phenyl]-1H-pyrazol-3-yl]amino]pyrazine-2-carbonitrile]	8.44	5.24	–	3000 nM	300 nM	–
COc1cc(C2CCN(C(C)C)CC2)ccc1-c1cc(Nc2cnc(C#N)cn2)n[nH]1 [Example 61, 5-[[5-[4-(1-isopropyl-4-piperidyl)-2-methoxy-phenyl]-1H-pyrazol-3-yl]amino]pyrazine-2-carbonitrile]	10.00	6.60	–	100 nM	2 nM	–
COc1cc(OC2CCNCC2)ccc1-c1cc(Nc2cnc(C#N)cn2)n[nH]1 [Example 57, 5-[[5-[2-methoxy-4-(4-piperidyloxy)phenyl]-1H-pyrazol-3-yl]amino]pyrazine-2-carbonitrile]	10.15	6.47	–	100 nM	3 nM	–
COc1cc(OC2CCN(C)CC2)ccc1-c1cc(Nc2cnc(C#N)cn2)n[nH]1 [Example 28, 5-[[5-[2-methoxy-4-[(1-methyl-4-piperidyl)oxy]phenyl]-1H-pyrazol-3-yl]amino]pyrazine-2-carbonitrile hydrochloride]	9.89	–	–	<100 nM	<3 nM	279 nM
COc1cc(C2CCNCC2)c(Cl)cc1-c1cc(Nc2cnc(C#N)cn2)n[nH]1 [Example 68, 5-[[5-[5-chloro-2-methoxy-4-(4-piperidyl)phenyl]-1H-pyrazol-3-yl]amino]pyrazine-2-carbonitrile]	8.54	5.86	–	1000 nM	100 nM	–
COc1cc(CNCCN2CCOCC2)ccc1-c1cc(Nc2cnccn2)n[nH]1 [Example 10, (5-{2-methoxy-4-[(2-morpholin-4-yl-ethylamino)-methyl]-phenyl}-1H-pyrazol-3-yl)-pyrazin-2-yl-amine]	7.96	< 5.52	–	>3000 nM	1000 nM	–
COc1cc(CNCc2ccccc2)ccc1-c1cc(Nc2cnc(C#N)cn2)n[nH]1 [Example 3, 5-{5-[4-(Benzylamino-methyl)-2-methoxy-phenyl]-1H-pyrazol-3-ylamino}-pyrazine-2-carbonitrile hydrochloride]	9.68	–	–	100 nM	10 nM	275 nM
COc1cc(C2CCNCC2)ccc1-c1cc(Nc2cnc(Cl)cn2)n[nH]1 [Example 43, 5-chloro-N-[5-[2-methoxy-4-(4-piperidyl)phenyl]-1H-pyrazol-3-yl]pyrazin-2-amine]	9.14	5.88	–	1000 nM	100 nM	–
CCN1CCCN(c2ccc(-c3cc(Nc4cnc(C#N)cn4)n[nH]3)c(OC)c2)CC1 [Example 83, 5-[[5-[4-(4-ethyl-1,4-diazepan-1-yl)-2-methoxy-phenyl]-1H-pyrazol-3-yl]amino]pyrazine-2-carbonitrile]	9.96	6.97	–	<100 nM	<3 nM	–
COc1cc(N2CCCN(C)CC2)ccc1-c1cc(Nc2cnc(C#N)cn2)n[nH]1 [Example 23, 5-[[5-[2-methoxy-4-(4-methyl-1,4-diazepan-1-yl)phenyl]-1H-pyrazol-3-yl]amino]pyrazine-2-carbonitrile]	9.92	6.58	–	<100 nM	<3 nM	–
COc1cc(C2CCNCC2)ccc1-c1cc(Nc2ccc(C#N)cn2)n[nH]1 [Example 50, 6-[[5-[2-methoxy-4-(4-piperidyl)phenyl]-1H-pyrazol-3-yl]amino]pyridine-3-carbonitrile]	7.70	< 5.52	–	3000 nM	300 nM	–

Second part, led by results:

pIC50 (Chk-1 kinase)	pIC50 (MIA PaCa-2 cells; Homo sapiens)	Compound	pIC50 (MIA PaCa-2 cells)	10xLS (MIA PaCa-2 cells)	2xLS (MIA PaCa-2 cells)	IC50 (MIA PaCa-2 cells; Homo sapiens)
11.08	6.57	CCN1CCC(CN(C)c2ccc(-c3cc(Nc4cnc(C#N)cn4)n[nH]3)c(OC)c2)CC1 [Example 145, 5-[[5-[4-[(1-ethyl-4-piperidyl)methyl-methyl-amino]-2-methoxy-phenyl]-1H-pyrazol-3-yl]amino]pyrazine-2-carbonitrile]	–	<100 nM	<3 nM	–
10.92	6.36	COc1cc(CNCC(C)C)ccc1-c1cc(Nc2cnc(C#N)cn2)n[nH]1 [Example 146, 5-[[5-[4-[(isobutylamino)methyl]-2-methoxy-phenyl]-1H-pyrazol-3-yl]amino]pyrazine-2-carbonitrile]	–	100 nM	3 nM	–
10.25	6.68	CCN1CCC[C@@H]1COc1ccc(-c2cc(Nc3cnc(C#N)cn3)n[nH]2)c(OC)c1 [Example 126, 5-[[5-[4-[[(2R)-1-ethylpyrrolidin-2-yl]methoxy]-2-methoxy-phenyl]-1H-pyrazol-3-yl]amino]pyrazine-2-carbonitrile]	–	<100 nM	3 nM	–
10.36	6.77	COc1cc(OC[C@H]2CCCN2C(C)C)ccc1-c1cc(Nc2cnc(C#N)cn2)n[nH]1 [Example 127, 5-[[5-[4-[[(2R)-1-isopropylpyrrolidin-2-yl]methoxy]-2-methoxy-phenyl]-1H-pyrazol-3-yl]amino]pyrazine-2-carbonitrile]	–	<100 nM	<3 nM	–
10.00	6.23	COc1cc(CN[C@@H]2CCOC2)ccc1-c1cc(Nc2cnc(C#N)cn2)n[nH]1 [Example 131, 5-[[5-[2-methoxy-4-[[[(3R)-tetrahydrofuran-3-yl]amino]methyl]phenyl]-1H-pyrazol-3-yl]amino]pyrazine-2-carbonitrile]	–	100 nM	3 nM	–
9.77	6.36	COc1cc(C2CCN(CCF)CC2)ccc1-c1cc(Nc2cnc(C#N)cn2)n[nH]1 [Example 106, 5-[[5-[4-[1-(2-fluoroethyl)-4-piperidyl]-2-methoxy-phenyl]-1H-pyrazol-3-yl]amino]pyrazine-2-carbonitrile]	–	100 nM	3 nM	–
10.11	6.68	COc1cc(N2CCNCC2)cc(F)c1-c1cc(Nc2cnc(C#N)cn2)n[nH]1 [Example 116, 5-[[5-(2-fluoro-6-methoxy-4-piperazin-1-yl-phenyl)-1H-pyrazol-3-yl]amino]pyrazine-2-carbonitrile]	–	100 nM	3 nM	–
9.85	7.21	COc1cc(N2CCCN(C(C)C)CC2)ccc1-c1cc(Nc2cnc(C#N)cn2)n[nH]1 [Example 84, 5-[[5-[4-(4-isopropyl-1,4-diazepan-1-yl)-2-methoxy-phenyl]-1H-pyrazol-3-yl]amino]pyrazine-2-carbonitrile]	–	<100 nM	<3 nM	–
9.96	6.45	CCN1CCC(Oc2ccc(-c3cc(Nc4cnc(C#N)cn4)n[nH]3)c(OC)c2)CC1 [Example 134, 5-[[5-[4-[(1-ethyl-4-piperidyl)oxy]-2-methoxy-phenyl]-1H-pyrazol-3-yl]amino]pyrazine-2-carbonitrile]	–	100 nM	3 nM	–
10.80	6.88	COc1cc(N2CCN(C)[C@H](C)C2)ccc1-c1cc(Nc2cnc(C#N)cn2)n[nH]1 [Example 92, 5-[[5-[4-[(3R)-3,4-dimethylpiperazin-1-yl]-2-methoxy-phenyl]-1H-pyrazol-3-yl]amino]pyrazine-2-carbonitrile]	–	30 nM	<3 nM	–
